Measurements as given in publication PMC3493529, “Molecular and Pharmacological Characterization of Serotonin 5-HT2α and 5-HT7 Receptors in the Salivary Glands of the Blowfly Calliphora vicina” (PLoS ONE, 2012).
Where a name gives a salt, the structure may show the parent alone. Read-outs that look alike come from different tables or passages of the source.

Key:
[1] = molecular target: T1, Cv5-HT2α (Calliphora vicina, UniProt I7JA47); test: Ca2+ signals (Fluo-4) in Cv5-HT2α-expressing HEK 293 cells, agonists; assay type: cell-based; settings: Cv5-HT2α-expressing HEK 293 cells
Description: (§1) We applied a previously established protocol to generate cell lines that constitutively expressed either Cv5-HT2α or Cv5-HT7. […] (flpTM cells, provided by Sibion biosciences GmbH, Jülich, Germany). Approximately 8 µg of the respective expression vectors were introduced into ∼4×10^5 cells by a modified calcium-phosphate method. Stably transfected cells were selected in the presence of the antibiotics Blasticidin (0.1 mg/ml; Cv5-HT2α) or G418 (0.8 mg/ml; Cv5-HT7). Expression of Cv5-HT2α and Cv5-HT7 was monitored by Western blotting with commercially available anti-His antibodies (anti-6x His Epitope Tag; Rockland Immunochemicals Inc, Gilbertsville, USA) and anti-HA antibodies (clone 3F10; Roche, Penzberg, Germany), respectively.
(§2) The ability of Cv5-HT2α to induce Ca^2+ signals in the transfected cell line was measured with the Ca^2+-sensitive dye Fluo-4. Similarly, Cv5-HT7-induced cAMP production was indirectly monitored by the cAMP-dependent activation of the cyclic nucleotide-gated ion channel in flpTM cells (see above). The cyclic nucleotide-gated ion channel is permeable to Ca^2+ ions and thus an increase in [cAMP]i leads to an influx of Ca^2+ ions, which can be detected with Fluo-4. […] After 1 h, the loading solution was substituted for dye-free ES. To inhibit cAMP hydrolysis in Cv5-HT7-expressing cells, ES containing 100 µM isobutylmethylxanthine (IBMX) was used. Plates were transferred into a fluorescence reader (FLUOstar Omega; bmg, Offenburg, Germany) and Fluo-4 fluorescence was monitored. […] Fluorescence emission was detected at 520 nm. Once the basal fluorescence in each well had reached a stable value, various concentrations of the respective ligands were added. The resulting changes in Fluo-4 fluorescence were recorded automatically.

[2] = molecular target: T2, Cv5-HT7 (Calliphora vicina, UniProt I7IA71); test: cAMP-dependent CNG channel Ca2+ influx (Fluo-4) in Cv5-HT7-expressing flpTM cells, agonists; assay type: cell-based; settings: Cv5-HT7-expressing flpTM cells, 100 µM IBMX
Description: as §1, §2

[3] = tested on: blowfly salivary glands; test: Transepithelial potential (TEP) of blowfly salivary glands, agonists; assay type: cell-based, Calliphora vicina; parameters: key to negative TEP phase / positive TEP phase: ++: high amplitude; +: low amplitude; -: no apparent effect; -/+: variable effect
Description: (§3) The abdominal portions of salivary glands were dissected in physiological saline (in mM: 128 NaCl, 10 KCl, 2 CaCl2, 2.7 MgCl2, 3 Na-glutamate, 2.8 maleic acid, 10 D-glucose and 10 Tris-HCl, pH 7.2). Measurements of transepithelial potential (TEP) were performed by the oil-gap method with a DPA-2F differential amplifier (npi Electronic Instruments, Tamm, Germany). Data were sampled and digitized at 1 Hz (KUSB-3102 module for AD-conversion; Keithley, Germering, Germany) by using the software TestPoint (v4.1; Capital Equipment Corp, Billerica, MA, USA) for data acquisition and storage.

[4] = molecular target: T1, Cv5-HT2α; test: Inhibition of 5-HT-induced Ca2+ signals in Cv5-HT2α-expressing cells; assay type: cell-based; settings: in the presence of 100 nM 5-HT
Description: as §1, with “Cv5-HT7. For Cv5-HT2α expression, human embryonic kidney cells (HEK 293; ECACC, Salisbury, UK) were chosen.” for “Cv5-HT7.”
(§4) The ability of Cv5-HT2α to induce Ca^2+ signals in the transfected cell line was measured with the Ca^2+-sensitive dye Fluo-4. Similarly, Cv5-HT7-induced cAMP production was indirectly monitored by the cAMP-dependent activation of the cyclic nucleotide-gated ion channel in flpTM cells (see above). The cyclic nucleotide-gated ion channel is permeable to Ca^2+ ions and thus an increase in [cAMP]i leads to an influx of Ca^2+ ions, which can be detected with Fluo-4. Cells were grown in 96-well plates to a density of ∼3×10^4 (Cv5-HT2α) or 1.5×10^4 (Cv5-HT7) and then incubated in extracellular solution (ES in mM: 120 NaCl, 5 KCl, 2 CaCl2, 2 MgCl2, 10 glucose, 10 HEPES, pH 7.4) containing 3 mM probenecid, 0.02% (w/v) Pluronic® F-127 (Sigma) and 2 µM Fluo-4AM (Invitrogen). After 1 h, the loading solution was substituted for dye-free ES. To inhibit cAMP hydrolysis in Cv5-HT7-expressing cells, ES containing 100 µM isobutylmethylxanthine (IBMX) was used. Plates were transferred into a fluorescence reader (FLUOstar Omega; bmg, Offenburg, Germany) and Fluo-4 fluorescence was monitored. The excitation wavelength was 485 nm. Fluorescence emission was detected at 520 nm. Once the basal fluorescence in each well had reached a stable value, various concentrations of the respective ligands were added. The resulting changes in Fluo-4 fluorescence were recorded automatically.
(§5) Changes in Ca^2+-dependent Fluo-4 signals were registered automatically. Data represent the means±SD of eight replicates. […] Relative fluorescence (%) is normalized to the values obtained with 100 nM 5-HT in the absence of antagonists. […] Relative fluorescence (%) is normalized to the values obtained with 6 nM 5-HT in the absence of antagonists.

[5] = molecular target: T2, Cv5-HT7; test: Inhibition of 5-HT-induced Fluo-4 signals in Cv5-HT7-expressing cells; assay type: cell-based; settings: in the presence of 6 nM 5-HT
Description: as §1, with “Cv5-HT7. For Cv5-HT2α expression, human embryonic kidney cells (HEK 293; ECACC, Salisbury, UK) were chosen.” for “Cv5-HT7.”
as §4, §5

[6] = tested on: blowfly salivary glands; test: 5-HT-induced TEP response of blowfly salivary glands, antagonists; assay type: cell-based, Calliphora vicina; parameters: key to suppression of the positive TEP phase: ++: complete; +: incomplete; -: no apparent effect; -/+: variable effect; key to suppression of the negative TEP phase: ++: high amplitude; +: low amplitude; -: no apparent effect; -/+: variable effect; settings: for reversibility / suppression of the negative TEP phase / suppression of the positive TEP phase: TEP response evoked with 10 nM or 30 nM 5-HT
Description: as §3

[7] = Cv5-HT2α EC50, Ca2+-dependent Fluo-4 signal
[8] = Cv5-HT2α log EC50, Ca2+-dependent Fluo-4 signal
[9] = Fluo-4 signal, read-out: Cv5-HT7 EC50

T1 sequence (I7JA47 entry or part of it): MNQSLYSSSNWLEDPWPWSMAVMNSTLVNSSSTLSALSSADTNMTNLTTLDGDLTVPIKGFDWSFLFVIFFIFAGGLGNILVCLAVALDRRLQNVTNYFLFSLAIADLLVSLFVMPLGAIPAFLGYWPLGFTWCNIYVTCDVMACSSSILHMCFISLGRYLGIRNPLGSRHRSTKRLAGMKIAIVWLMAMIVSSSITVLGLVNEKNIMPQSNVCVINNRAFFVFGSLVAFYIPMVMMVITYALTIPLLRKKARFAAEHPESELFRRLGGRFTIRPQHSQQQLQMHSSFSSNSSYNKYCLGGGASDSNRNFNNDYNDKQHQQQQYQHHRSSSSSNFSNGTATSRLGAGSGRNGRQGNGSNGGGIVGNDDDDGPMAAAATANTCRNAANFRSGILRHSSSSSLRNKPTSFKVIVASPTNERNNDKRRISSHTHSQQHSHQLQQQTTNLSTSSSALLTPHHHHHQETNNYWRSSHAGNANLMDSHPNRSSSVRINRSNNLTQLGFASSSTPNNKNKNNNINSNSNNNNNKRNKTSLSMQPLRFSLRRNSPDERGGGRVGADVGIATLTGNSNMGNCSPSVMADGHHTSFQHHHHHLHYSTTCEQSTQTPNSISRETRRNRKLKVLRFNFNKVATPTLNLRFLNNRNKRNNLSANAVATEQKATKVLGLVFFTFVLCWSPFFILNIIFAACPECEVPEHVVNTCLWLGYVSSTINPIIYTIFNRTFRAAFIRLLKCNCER
T2 sequence (I7IA71 entry or part of it): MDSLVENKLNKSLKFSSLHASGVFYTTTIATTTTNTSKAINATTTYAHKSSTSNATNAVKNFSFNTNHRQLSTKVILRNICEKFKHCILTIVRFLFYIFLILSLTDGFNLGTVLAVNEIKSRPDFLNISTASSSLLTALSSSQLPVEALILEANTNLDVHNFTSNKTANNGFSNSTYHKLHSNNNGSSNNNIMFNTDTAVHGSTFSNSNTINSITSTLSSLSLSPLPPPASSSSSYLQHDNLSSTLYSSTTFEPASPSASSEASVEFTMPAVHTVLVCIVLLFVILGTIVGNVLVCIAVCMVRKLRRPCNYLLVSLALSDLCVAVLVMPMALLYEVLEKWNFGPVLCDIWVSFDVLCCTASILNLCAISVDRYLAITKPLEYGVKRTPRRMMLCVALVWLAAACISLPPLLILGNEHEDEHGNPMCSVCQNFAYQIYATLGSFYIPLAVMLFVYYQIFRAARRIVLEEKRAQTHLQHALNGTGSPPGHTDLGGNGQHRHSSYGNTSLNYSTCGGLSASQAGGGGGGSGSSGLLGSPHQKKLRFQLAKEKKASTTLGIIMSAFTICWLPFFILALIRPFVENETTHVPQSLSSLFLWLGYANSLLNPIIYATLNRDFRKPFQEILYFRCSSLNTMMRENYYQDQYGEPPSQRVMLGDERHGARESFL

CCCN(CCC)C1CCc2cccc(O)c2C1 (racemic) [8-OH-DPAT, (+/−)-8-hydroxy-2-(dipropylamino)tetralin]
EC50 [1, 7]: 62 µM | EC50 [1, 8]: 61.7 µM | EC50 [2, 9]: 7.9 µM | EC50 ([2]; Fluo-4 signal, read-out: Cv5-HT7 log EC50 (converted)): 7.94 µM

NCCc1c[nH]c2ccc(C(N)=O)cc12 [5-CT, 5-carboxamidotryptamine]
Cv5-HT2α log EC50 ([1]; Ca2+-dependent Fluo-4 signal): −4.29±0.05 | EC50 ([1]; Ca2+-dependent Fluo-4 signal, read-out: Cv5-HT2α EC50): 51 µM | TEP change of salivary glands ([3]; 0.3 µM): only a positive-going TEP change | negative TEP phase ([3]; 0.3 µM): - | positive TEP phase ([3]; 0.3 µM): + | reversibility ([3]; 0.3 µM): yes | negative TEP phase ([3]; 10 µM): ++ | positive TEP phase ([3]; 10 µM): ++ | reversibility ([3]; 10 µM): yes | TEP change of salivary glands ([3]; concentrations 1 µM): biphasic TEP response | Cv5-HT7 log EC50 ([2]; Fluo-4 signal): −6.37±0.02 | EC50 [2, 9]: 0.43 µM

COc1ccc2[nH]cc(CCN)c2c1 [5-MeOT, 5-methoxytryptamine]
EC50 [1, 7]: 0.067 µM | EC50 [1, 8]: 0.0676 µM | TEP change of salivary glands ([3]; 30 nM or 100 nM): only a negative-going TEP change | negative TEP phase ([3]; 0.03-0.1 µM): ++ | positive TEP phase ([3]; 0.03-0.1 µM): - | reversibility ([3]; 0.03-0.1 µM): yes | negative TEP phase ([3]; 1-100 µM): ++ | positive TEP phase ([3]; 1-100 µM): + | reversibility ([3]; 1-100 µM): yes | TEP change of salivary glands ([3]; 1–100 µM): biphasic response | EC50 ([2]; Cv5-HT7 EC50, Fluo-4 signal): 0.95 µM | EC50 ([2]; Cv5-HT7 log EC50, Fluo-4 signal): 0.955 µM

CC1CCN(CC[C@H]2CCCN2S(=O)(=O)c2cccc(O)c2)CC1 [SB-269970]
Cv5-HT2α log IC50 [4]: −4.27±0.30 | IC50 ([4]; read-out: Cv5-HT2α IC50): 53 µM | Cv5-HT7 log IC50 [5]: −8.06±0.21 | inhibitory efficacy at Cv5-HT7 (reduction of the 5-HT-evoked cellular response) [5]: ~15% | IC50 ([5]; read-out: Cv5-HT7 IC50): 0.009 µM

CN(C)CCCSc1ccccc1NC(=O)/C=C/c1ccccc1 [cinanserin, cinanserin hydrochloride]
IC50 ([4]; read-out: Cv5-HT2α IC50): 30 µM | IC50 ([4]; read-out: Cv5-HT2α log IC50 (converted)): 29.5 µM | IC50 ([5]; read-out: Cv5-HT7 IC50): 0.4 µM | IC50 ([5]; read-out: Cv5-HT7 log IC50 (converted)): 0.398 µM | effect on 5-HT-induced TEP response ([6]; 10 µM): reversibly but incompletely inhibited the positive phase | reversibility ([6]; 10 µM): yes | suppression of the negative TEP phase ([6]; 10 µM): - | suppression of the positive TEP phase ([6]; 10 µM): +

CN1CCN(C2=Nc3cc(Cl)ccc3Nc3ccccc32)CC1 [clozapine]
effect on 5-HT-induced TEP response ([6]; 1 µM, 30 nM 5-HT): completely and selectively inhibited the positive TEP phase | reversibility ([6]; 1 µM): yes | suppression of the negative TEP phase ([6]; 1 µM): - | suppression of the positive TEP phase ([6]; 1 µM): ++
